Results taken from patent US20060211764A1, “Cell activator, process for producing cell activator and apparatus therefor” (priority 2002, published 2006).

How the values were obtained:
laryngeal cancer = assay: Administration to a human patient, laryngeal cancer; format: in vivo; details: person; 20 g/day for 150 days
[1] = Examinations after ingestion by healthy subjects and long-term patients; format: in vivo, human
liver cancer = assay: Administration to human patients, liver cancer; format: in vivo; details: male
[2] = tested on: pulmonary cancer metastasis lymphoma; assay: Administration to a human patient, pulmonary cancer metastasis lymphoma; format: in vivo; details: person; 15 g/day for 180 days
leukemia = assay: Administration to human patients, leukemia; format: in vivo; details: person
constipation = assay: Bowel movement and constipation during ingestion; format: in vivo, human; details: CPL ingestion; laxative discontinued
[3] = tested on: diabetes/rheumatism/hypertension; assay: Administration to a human patient, diabetes/rheumatism/hypertension; format: in vivo; details: person; 15 g/day for 30 days, then up to 20 g/day
bacterial diarrhea = assay: Administration to milking bovines, bacterial diarrhea; format: in vivo, bovine
Description: In the milking bovines, a bacterial diarrhea started to spread. Initially, four bovines infected by the bacterial diarrhea one after another. […] The bovines fed as usual even in the condition of diarrhea and no decrease in the amount of milk was observed.

cancer cells = assay: Effects on cancer cells; format: cell-based
Description: (§1) Morphologically, it causes vacuolation, and the expansion of the cytoplasm of cells, disintegration and aggregation of the nucleus. […] These are considered to inhibit not only the synthesis of ATP but also the actions of mRNA and be involved in the synthesis of RNA and DNA, and the generation of intracellular energy by acting on the metabolism of the intracellular organelle such as rough-surfaced endoplasmic reticulum, smooth-surfaced endoplasmic reticulum, ribosome, Golgi apparatus, etc., and as a result, controlling the metabolism of the cells, influencing the synthesis of proteins/glycoprotein, intracellular lipid metabolism, and movement and transport of ions. […] Morphologically, in the case that cells end up degenerating, the degeneration generally changes first to the nucleus followed by the cytoplasm.

gastric cancer = assay: Administration to human patients, gastric cancer; format: in vivo
Description: Patient, gastric cancer had metastasized in the liver; countless cancer cells metastasized and dispersed in the liver.
Gastric cancer was detected as a result of a detailed examination, extirpated soon after the discovery, cancer as large as a head of a fetus was removed. Scattered additionally in the peritoneal cavity: Life expectancy was 3-6 months.
person, metastasized in the pancreas and peritoneum.

[4] = Administration to bovines antepartum; format: in vivo, bovine
Description: From 3 to 5 days before expected date of delivery, 50 g/day of CPL administration was initiated.

colon cancer = assay: Administration to a human patient, colon cancer; format: in vivo; details: person
lipid metabolism system = assay: Effects of CPL ingestion on lipid metabolism; format: in vivo
tongue cancer = assay: Administration to a human patient, tongue cancer; format: in vivo; details: person; 20 g/day for 120 days
[5] = tested on: bone-thinning disease osteoporosis; assay: Administration to a human patient, osteoporosis; format: in vivo; details: person; 6 g/day for 180 days
pancreatic cancer = assay: Administration to a human patient, pancreatic cancer; format: in vivo; details: 30 g/day; in approximately 1 and a half months
Description: In approximately 1 and a half months, the patient recovered.

pneumonia = assay: Administration to bovine, pneumonia; format: in vivo; details: 20 g/day for 1-2 days
uterine cervical cancer = format: in vivo, human; details: ingesting CPL
Description: In the case of elderly people whose metabolic functions are weaker, ingesting a large amount of a drug often causes adverse reactions and invites risks. […] This patient was taking a strong painkiller when fighting against cancer, which could be replaced by a common painkiller after taking CPL.

uterine/ovarian cancer = assay: Administration to a human patient, uterine/ovarian cancer with ileus; format: in vivo
Method: Person, two years ago, the uterus was extirpated, the ovary and fallopian duct were resected and chemotherapy was performed 3 times. During hospitalization, an ileus tube was inserted due to an ileus. Then intestinal liquid and gas were emitted. A central nutrition tube was inserted into the right subclavian vein because oral ingestion was impossible. An artificial anus and urinary duct tube were attached due to a tumor in the left abdomen. […] Cancerous pain ameliorated and the ingestion of solid food from 3/10- 5/10- 7/10-whole porridge was enabled. Discharged from the hospital 3 months later.

bladder cancer = assay: Administration to human patients, bladder cancer; format: in vivo
pyruvic acid kinase = assay: Inhibition of pyruvic acid kinase activity; format: biochemical; details: enzyme of the anaerobic glycolytic pathway
Description: as §1

infertility = assay: Administration to human patients, infertility; format: in vivo
ovarian cyst = assay: Administration to human patients, ovarian cyst (ultrasonography, MRI); format: in vivo
Description: A case of a patient whose uterus was extirpated due to uterine myoma. This patient has had two celitomies with a caesarean section. They received an examination for cancer because abnormal bleeding has continued recently. […] Moreover, a prominent part was found in part of the cyst and it was suspected to be malign (Photograph (1)).
The size of the ovarian cyst measured with ultrasonography carried out a few days later was reduced down to approximately 4 cm (Photograph (2)).
A case of a patient whose wedding day was drawing close. […] In consideration that hormone abnormalities were the cause, follow-ups were made for 2-3 weeks. Carrying out a subsequent examination, the ovary was further swollen to 6.5 cm (Photograph 5).

cervical malign lymphoma = assay: Administration to a human patient, cervical malign lymphoma; format: in vivo; details: person; 20 g/day for 360 days

Cyclic Poly-lactate [CPL]
outcome of laryngeal cancer (laryngeal cancer): cured
effect on results of examinations (physical findings, hematological/biochemical tests, urine and faeces) ([1]; healthy subjects, 6 g/day): not to affect
effect on biogenic basic functions (appetite, sleep, changes in weight, libido) ([1]; human, in vivo): no effect
abnormal findings from examinations ([1]; patients who have taken 6 g/day for 3-5 years): no abnormal findings at all
outcome of liver cancer (liver cancer; 20 g/day for 150 days): cured
outcome of liver cancer originated from liver cirrhosis (liver cancer; 20 g/day for 210 days): cured
course of pulmonary cancer metastasis lymphoma [2]: satisfactory progress
outcome of leukemia (leukemia; 15-20 g/day for 170 days): cured
outcome of leukemia (leukemia; 15 g/day for 5 months): cured
outcome of leukemia (leukemia; 15 g/day for 220 days): cured
recurrence of leukemia (leukemia; for 2 years onwards): No recurrence
defecation of patients suffering from constipation (constipation): improved defecation
need for dialysis [3]: dialysis was not necessary
response of bacterial diarrhea (bacterial diarrhea; 50 g/day, 100 g/day of Neothor in combination in severe cases, in most bovines): complete response
amount of milk (bacterial diarrhea; bovines with bacterial diarrhea given 50 g/day): no decrease
proliferation of cancer cells (cancer cells): controls the proliferation
cancer blocks metastasized in the liver (gastric cancer; male, gastric cancer metastasized in the liver, CPL for 2 weeks): necrotized
course of terminal inoperable gastric cancer (gastric cancer; person, metastasized in pancreas and peritoneum, 30 g/day for 150 days): progressing satisfactorily
recurrence after extirpation of gastric cancer (gastric cancer; scattered in peritoneal cavity, life expectancy 3-6 months, 10 g/day for 5 months): no sign of a recurrence
mastitis prevention ([4]; 50 g/day from 3 to 5 days before expected date of delivery): confirmed to play a role in mastitis prevention
delivery of calves ([4]; 50 g/day initiated 5 days before expected date of delivery): smoothly
colon tumors of 2 cm in size (Stage 2-3) (colon cancer; 20 g/day for 150 days, in 2 weeks): disappeared
examination for colon cancer (colon cancer; examination 5 months later): No abnormalities were found
fatty acid composition of triglyceride (lipid metabolism system): changes
outcome of tongue cancer (tongue cancer): completely disappeared
bone density [5]: increased
outcome of patient with pancreatic cancer considered incurable (pancreatic cancer): recovered
symptom of pneumonia (pneumonia): improved
pain of patients suffering from advanced cancer (uterine cervical cancer): diminishes the pain rapidly
excretion of gas, defecation and amount of urine (uterine/ovarian cancer; person with ileus, 4-6 g/day): increased
ileus symptoms (uterine/ovarian cancer; person, 7 days later): negative
recurrence of ileus symptoms (uterine/ovarian cancer; person, discharged 3 months later): No recurrent ileus symptoms
cancerous pain (uterine/ovarian cancer; person, oral ingestion 15-20 g/day): ameliorated
examination findings and recurrence of bladder cancer (bladder cancer; male, resection performed 5 times, 20-30 g/day for 50 days): no abnormal findings from examinations, nor a recurrence
course of bladder cancer (bladder cancer; person, 40-50 g/day for 270 days): improved from the terminal stage
activity of pyruvic acid kinase (pyruvic acid kinase): inhibits
number of patients who conceived (infertility; 10 patients with infertility, 6-9 g/day): 8
lower abdominal pain (infertility; person, endometriosis, ovarian cyst, 6 g/day, within the next 2-3 days): ameliorated
conception (infertility; person, after endometriosis symptoms ameliorated): naturally conceived
ovarian cyst at preoperative MRI examination (ovarian cyst; patient, 30-40 g/day until operation): disappeared
size of ovarian cyst by ultrasonography (ovarian cyst; patient, 30-40 g/day, a few days later, initially approximately 5 cm): approximately 4 cm
ovarian cyst after further administration (ovarian cyst; person, 2 weeks after further administration): disappeared completely
size of ovarian cyst by ultrasonography (ovarian cyst; person, CPL for 2 weeks, 6.5 cm before): below 4 cm
outcome of cervical malign lymphoma (cervical malign lymphoma): cured
